#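 In this assay, cells in 96-well plates receive the compound at five concentrations for 48 hours. Endpoints are linearly interpolated between the surrounding concentrations. TGI is the concentration that stops growth completely.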
# Columns and labels:
# Assay in all cases: DTP human tumour cell line panel, 48 h
# SF-295 CNS = system: SF-295 CNS
# U251 CNS = system: U251 CNS
# NCI-H522 lung = system: NCI-H522 lung
# CAKI-1 renal = system: CAKI-1 renal
# IGROV1 ovarian = system: IGROV1 ovarian
# HOP-62 NSCLC = system: HOP-62 NSCLC
# SR leukemia = system: SR leukemia
# SK-MEL-5 melanoma = system: SK-MEL-5 melanoma
# OVCAR-5 ovarian = system: OVCAR-5 ovarian
# ACHN renal = system: ACHN renal
# TK-10 renal = system: TK-10 renal
# HS 578T breast = system: HS 578T breast
# K-562 leukemia = system: K-562 leukemia
# SK-OV-3 ovarian = system: SK-OV-3 ovarian
# OVCAR-8 ovarian = system: OVCAR-8 ovarian
# SF-268 CNS = system: SF-268 CNS
# M14 melanoma = system: M14 melanoma
# CCRF-CEM leukemia = system: CCRF-CEM leukemia
# RPMI-8226 leukemia = system: RPMI-8226 leukemia
# UACC-257 melanoma = system: UACC-257 melanoma
# T-47D breast = system: T-47D breast
# SNB-19 CNS = system: SNB-19 CNS
# MDA-N = system: MDA-N
# A549 NSCLC = system: A549 NSCLC
# HCT-116 colon = system: HCT-116 colon
# MDA-MB-231 breast = system: MDA-MB-231 breast
# SW-620 colon = system: SW-620 colon
# PC-3 prostate = system: PC-3 prostate
# MOLT-4 leukemia = system: MOLT-4 leukemia
# UACC-62 melanoma = system: UACC-62 melanoma
# A498 renal = system: A498 renal
# NCI-H226 lung = system: NCI-H226 lung
# HCC-2998 colon = system: HCC-2998 colon
# 786-0 renal = system: 786-0 renal
# NCI-H23 lung = system: NCI-H23 lung
# EKVX NSCLC = system: EKVX NSCLC
# MDA-MB-435 = system: MDA-MB-435
# OVCAR-3 ovarian = system: OVCAR-3 ovarian
# HCT-15 colon = system: HCT-15 colon
# SF-539 CNS = system: SF-539 CNS
# SN12C renal = system: SN12C renal
# COLO 205 colon = system: COLO 205 colon
# NCI/ADR-RES ovarian = system: NCI/ADR-RES ovarian
# HL-60(TB) leukemia = system: HL-60(TB) leukemia
# HT29 colon = system: HT29 colon
# RXF 393 renal = system: RXF 393 renal
# NCI-H460 lung = system: NCI-H460 lung
# LOX IMVI melanoma = system: LOX IMVI melanoma
# SNB-75 CNS = system: SNB-75 CNS
# UO-31 renal = system: UO-31 renal
# MALME-3M melanoma = system: MALME-3M melanoma
# KM12 colon = system: KM12 colon
# SK-MEL-28 melanoma = system: SK-MEL-28 melanoma
# DU-145 prostate = system: DU-145 prostate
# SK-MEL-2 melanoma = system: SK-MEL-2 melanoma
# OVCAR-4 ovarian = system: OVCAR-4 ovarian
# MCF7 breast = system: MCF7 breast
# HOP-92 NSCLC = system: HOP-92 NSCLC
structure (smiles),measurement,setting,value
CC(=O)CC1(OC(=O)C2C(C=C(C)C)C2(C)C)C(=O)Nc2ccccc21 (stereo unspecified),TGI,SF-295 CNS,> 100 µM
same,TGI,U251 CNS,> 100 µM
same,TGI,NCI-H522 lung,> 100 µM
same,TGI,CAKI-1 renal,> 100 µM
same,TGI,IGROV1 ovarian,> 100 µM
same,TGI,HOP-62 NSCLC,> 100 µM
same,TGI,SR leukemia,> 100 µM
same,TGI,SK-MEL-5 melanoma,> 100 µM
same,TGI,OVCAR-5 ovarian,> 100 µM
same,TGI,ACHN renal,> 100 µM
same,TGI,TK-10 renal,> 100 µM
same,TGI,HS 578T breast,> 100 µM
same,TGI,K-562 leukemia,> 100 µM
same,TGI,SK-OV-3 ovarian,> 100 µM
same,TGI,OVCAR-8 ovarian,> 100 µM
same,TGI,SF-268 CNS,> 100 µM
same,TGI,M14 melanoma,> 100 µM
same,TGI,CCRF-CEM leukemia,> 100 µM
same,TGI,RPMI-8226 leukemia,> 100 µM
same,TGI,UACC-257 melanoma,> 100 µM
same,TGI,T-47D breast,> 100 µM
same,TGI,SNB-19 CNS,> 100 µM
same,TGI,MDA-N,> 100 µM
same,TGI,A549 NSCLC,> 100 µM
same,TGI,HCT-116 colon,> 100 µM
same,TGI,MDA-MB-231 breast,> 100 µM
same,TGI,SW-620 colon,> 100 µM
same,TGI,PC-3 prostate,> 100 µM
same,TGI,MOLT-4 leukemia,> 100 µM
same,TGI,UACC-62 melanoma,> 100 µM
same,TGI,A498 renal,> 100 µM
same,TGI,NCI-H226 lung,> 100 µM
same,TGI,HCC-2998 colon,> 100 µM
same,TGI,786-0 renal,> 100 µM
same,TGI,NCI-H23 lung,> 100 µM
same,TGI,EKVX NSCLC,> 100 µM
same,TGI,MDA-MB-435,> 100 µM
same,TGI,OVCAR-3 ovarian,> 100 µM
same,TGI,HCT-15 colon,> 100 µM
same,TGI,SF-539 CNS,> 100 µM
same,TGI,SN12C renal,> 100 µM
same,TGI,COLO 205 colon,> 100 µM
same,TGI,NCI/ADR-RES ovarian,> 100 µM
same,TGI,HL-60(TB) leukemia,> 100 µM
same,TGI,HT29 colon,> 100 µM
same,TGI,RXF 393 renal,> 100 µM
same,TGI,NCI-H460 lung,> 100 µM
same,TGI,LOX IMVI melanoma,> 100 µM
same,TGI,SNB-75 CNS,> 100 µM
same,TGI,UO-31 renal,> 100 µM
same,TGI,MALME-3M melanoma,> 100 µM
same,TGI,KM12 colon,> 100 µM
same,TGI,SK-MEL-28 melanoma,> 100 µM
same,TGI,DU-145 prostate,> 100 µM
same,TGI,SK-MEL-2 melanoma,> 100 µM
same,TGI,OVCAR-4 ovarian,> 100 µM
COP(C)(=O)C1=CCN(C(=O)OCC[Si](C)(C)C)CC1 (stereo unspecified),TGI,SF-295 CNS,> 100 µM
same,TGI,U251 CNS,> 100 µM
same,TGI,NCI-H522 lung,> 100 µM
same,TGI,CAKI-1 renal,> 100 µM
same,TGI,IGROV1 ovarian,> 100 µM
same,TGI,MCF7 breast,> 100 µM
same,TGI,HOP-62 NSCLC,> 100 µM
same,TGI,SK-MEL-5 melanoma,> 100 µM
same,TGI,OVCAR-5 ovarian,> 100 µM
same,TGI,ACHN renal,> 100 µM
same,TGI,TK-10 renal,> 100 µM
same,TGI,HS 578T breast,> 100 µM
same,TGI,SK-OV-3 ovarian,> 100 µM
same,TGI,OVCAR-8 ovarian,> 100 µM
same,TGI,SF-268 CNS,> 100 µM
same,TGI,M14 melanoma,> 100 µM
same,TGI,CCRF-CEM leukemia,> 100 µM
same,TGI,RPMI-8226 leukemia,> 100 µM
same,TGI,UACC-257 melanoma,> 100 µM
same,TGI,T-47D breast,> 100 µM
same,TGI,SNB-19 CNS,> 100 µM
same,TGI,MDA-N,> 100 µM
same,TGI,HOP-92 NSCLC,> 100 µM
same,TGI,A549 NSCLC,> 100 µM
same,TGI,MDA-MB-231 breast,> 100 µM
same,TGI,SW-620 colon,> 100 µM
same,TGI,PC-3 prostate,> 100 µM
same,TGI,UACC-62 melanoma,> 100 µM
same,TGI,A498 renal,> 100 µM
same,TGI,NCI-H226 lung,> 100 µM
same,TGI,HCC-2998 colon,> 100 µM
same,TGI,786-0 renal,> 100 µM
same,TGI,NCI-H23 lung,> 100 µM
same,TGI,EKVX NSCLC,> 100 µM
same,TGI,MDA-MB-435,> 100 µM
same,TGI,OVCAR-3 ovarian,> 100 µM
same,TGI,HCT-15 colon,> 100 µM
same,TGI,COLO 205 colon,> 100 µM
same,TGI,NCI/ADR-RES ovarian,> 100 µM
same,TGI,HT29 colon,> 100 µM
same,TGI,RXF 393 renal,> 100 µM
same,TGI,NCI-H460 lung,> 100 µM
same,TGI,LOX IMVI melanoma,> 100 µM
same,TGI,SNB-75 CNS,> 100 µM
same,TGI,UO-31 renal,> 100 µM
same,TGI,MALME-3M melanoma,> 100 µM
same,TGI,KM12 colon,> 100 µM
same,TGI,SK-MEL-28 melanoma,> 100 µM
same,TGI,DU-145 prostate,> 100 µM
same,TGI,SK-MEL-2 melanoma,> 100 µM
same,TGI,OVCAR-4 ovarian,> 100 µM
O=C(/C=C/c1ccsc1)c1ccc(Cl)cc1,TGI,SF-295 CNS,> 100 µM
same,TGI,U251 CNS,> 100 µM
same,TGI,CAKI-1 renal,> 100 µM
same,TGI,IGROV1 ovarian,> 100 µM
same,TGI,MCF7 breast,> 100 µM
same,TGI,HOP-62 NSCLC,> 100 µM
same,TGI,SR leukemia,43.7 µM
same,TGI,SK-MEL-5 melanoma,> 100 µM
same,TGI,OVCAR-5 ovarian,> 100 µM
same,TGI,ACHN renal,> 100 µM
same,TGI,TK-10 renal,> 100 µM
same,TGI,HS 578T breast,> 100 µM
same,TGI,K-562 leukemia,95.7 µM
same,TGI,SK-OV-3 ovarian,> 100 µM
same,TGI,OVCAR-8 ovarian,> 100 µM
same,TGI,SF-268 CNS,> 100 µM
same,TGI,M14 melanoma,> 100 µM
same,TGI,CCRF-CEM leukemia,53.3 µM
same,TGI,RPMI-8226 leukemia,64.8 µM
same,TGI,UACC-257 melanoma,> 100 µM
same,TGI,T-47D breast,> 100 µM
same,TGI,SNB-19 CNS,> 100 µM
same,TGI,MDA-N,> 100 µM
same,TGI,A549 NSCLC,> 100 µM
same,TGI,HCT-116 colon,> 100 µM
same,TGI,MDA-MB-231 breast,> 100 µM
same,TGI,SW-620 colon,> 100 µM
same,TGI,PC-3 prostate,> 100 µM
same,TGI,MOLT-4 leukemia,43.7 µM
same,TGI,UACC-62 melanoma,> 100 µM
same,TGI,A498 renal,> 100 µM
same,TGI,NCI-H226 lung,> 100 µM
same,TGI,HCC-2998 colon,> 100 µM
same,TGI,786-0 renal,> 100 µM
same,TGI,NCI-H23 lung,> 100 µM
same,TGI,EKVX NSCLC,> 100 µM
same,TGI,MDA-MB-435,> 100 µM
same,TGI,HCT-15 colon,> 100 µM
same,TGI,SF-539 CNS,> 100 µM
same,TGI,SN12C renal,> 100 µM
same,TGI,COLO 205 colon,> 100 µM
same,TGI,NCI/ADR-RES ovarian,> 100 µM
same,TGI,HL-60(TB) leukemia,49.8 µM
same,TGI,HT29 colon,> 100 µM
same,TGI,NCI-H460 lung,> 100 µM
same,TGI,LOX IMVI melanoma,47.8 µM
same,TGI,SNB-75 CNS,> 100 µM
same,TGI,UO-31 renal,> 100 µM
same,TGI,MALME-3M melanoma,95.3 µM
same,TGI,KM12 colon,> 100 µM
same,TGI,SK-MEL-28 melanoma,> 100 µM
same,TGI,DU-145 prostate,> 100 µM
same,TGI,SK-MEL-2 melanoma,> 100 µM
same,TGI,OVCAR-4 ovarian,> 100 µM
